Assay results as given in patent publication US20030134413A1, “Cell production” (priority 2000, published 2003).

Assays:
Format in all cases: cell-based, mouse
[1] = system: ES cells; experiment: Morphology of ES cell aggregates in suspension culture; conditions: medium supplemented with 100 units of LIF; data not shown
Method: (§1) All cell aggregates were formed from single cell suspensions (1×10^5 cells/ml) of ES or EPL cells cultured in bacterial petri dishes. ES cell and EPL cell embryoid bodies (EB and EPLEB respectively) were formed as described in Lake et al. (2000). EBM, cell aggregates formed and maintained in MEDII, were formed from ES cells aggregated in IC:DMEM (DMEM (Gibco BRL #12800) with 10% foetal calf serum (FCS; Commonwealth Serum Laboratories), […] gentamycin, 1 mM L-glutamine and 0.1 mM B-mercaptoethanol (B-ME)) supplemented with 50% MEDII. Aggregates were divided 1 in 2 on days 2 and 4, and medium was changed on days 2 and 4 and then daily until collection. […] The time in days from formation of aggregates was denoted by superscript with the day of formation denoted as day 0. For example, EBM 5 days after formation are represented as EBM^5.
For continued suspension culture of EB and EBM, aggregates on day 7 were transferred to serum free medium (50% DMEM, 50% Hams F12 (Gibco BRL # 11765) supplemented with 1× ITSS supplement (Boehringer Mannhiem) and 10 ng/ml FGF2 (Peprotech Inc.)).
EB^4 and EBM^4 were fixed with 4% PFA for 30 minutes before embedding in paraffin wax and sectioning as described in Hogan et al., 1994. 7 μm sections were stained with haematoxylin:eosin as described by Kaufman, 1992 or with Hoescht […] (5 μg/ml) in PBS; Sigma) for 5 minutes.

[2] = system: EBM^9 explants; experiment: Neural crest formation from EBM^9 explants
Method: Sox 10 probes were transcribed from pSox10E.1 (obtained from Dr. Peter Koopman, IMB, Brisbane, Australia). Anti-sense and sense probes were transcribed from HindIII or BamHI cut pSox10E.1 with […] or T3 RNA polymerase respectively.
EBM^9 were collected, washed in PBS, treated with 0.5 mM EGTA pH 7.5 for 3 minutes, washed in PBS and disaggregated to small clumps (20-200 cells) by trituration. Cell clumps were allowed to settle and single cells liberated during trituration were removed with the supernatant before plating onto tissue culture grade plasticware which had been coated with cellular fibronectin (1 μg/cm^2; obtained from M. D. Bettess, Department of Biochemistry, Adelaide University, Australia) and allowed to dry. Cells were cultured in Hams F12 containing 3% FCS and 10 ng/ml FGF2 and supplemented with either 0.1% 25 μM staurosporine (Sigma) in DMSO (final concentration, 25 nM) or 0.1% DMSO. Cellular aggregates were allowed to differentiate for 48 hours before fixation in 4% PFA for 30 minutes.

[3] = system: ES cells; experiment: Differentiation potential of seeded ES cell aggregates (neurons, beating cardiocytes); conditions: 10-20 ng/ml added to the medium from day 4
Method: as §1
For adherent culture, aggregates were seeded onto gelatin treated tissue culture grade plasticware (Falcon) on day 7 of development in 500 μl DMEM supplemented with 10% FCS (Commonwealth serum Laboratories). […]
EB^7 and EBM^7 were seeded as described above and assessed on days 8, 10, 12 and 14 for the presence of neurons, identified morphologically by the presence of axonal projections (and confirmed by the expression of NF200; data not shown), and beating cardiocytes, identified morphologically by rhythmical contraction of cells within the aggregate.

LIF: cytokine leukaemia inhibitory factor
morphology and gene expression profile of ES cell aggregates [1]: did not duplicate the morphology or gene expression profile of EBM

CN[C@@H]1C[C@H]2O[C@@](C)([C@@H]1OC)n1c3ccccc3c3c4c(c5c6ccccc6n2c5c31)C(=O)NC4 [staurosporine]
Sox10 expression by in situ hybridisation ([2]; 25 nM, 48 hours culture): observed in all cells | morphology of EBM explants ([2]; 25 nM, within three hours of seeding): surrounded by a halo of differentiating cells | concentration required for uniform differentiation ([2]; data not shown): greater than 10 nM

B1: FGF4: growth factor from the FGF family (protein, UniProt P08620 31-206, looked up)
Fibroblast growth factor 4: APTAPNGTLEAELERRWESLVALSLARLPVAAQPKEAAVQSGAGDYLLGIKRLRRLYCNVGIGFHLQALPDGRIGGAHADTRDSLLELSPVERGVVSIFGVASRFFVAMSSKGKLYGSPFFTDECTFKEILLPNNYNAYESYKYPGMFIALSKNGKTKKGNRVSPTMKVTHFLPRL
influence on the outcome of differentiation [3]: did not influence the outcome of differentiation
